Test results as given in US11160886B2, “Method for labeling of sensitive and thermosensitive targeting biomolecules with technetium based compounds” (BRACCO IMAGING SPA, priority 2016, dated 2021).

Legend:
[1] = Challenge reactions (transchelation) with excess Cys, GSH or EDTA, RCP by HPLC; assay type: physicochemical; conditions: 10 mM
Experimental: The transchelation studies were performed for some compounds monitoring by HPLC the radiochemical purity (RCP) of the complexes in presence of an excess of exchanging ligands over the time. The experiments were performed in triplicate.
Challenge experiments were carried out on the purified [^99mTc(N)(PNP3OH)]-labeled small size compounds (complex 1, complex 2, complex 9 and complex 10) using an excess of glutathione (GSH) or Cys. An aliquot (50 μl) of an aqueous stock solution of cysteine hydrochloride (10 mM; 1 mM) was added to a propylene test tube containing PB (250 μl, 0.2 M; pH 7.4), water (100 μl) and the selected [^99mTc(N)(PNP3OH)]-compound (100 μl). The mixture was vortexed and incubated at 37° C. for 24 h. A control reaction containing an equal volume of water, instead of cysteine hydrochloride, was studied in parallel. At 30 min, 1, 3 and 24 h, aliquots of the reaction mixture were withdrawn and analyzed by HPLC chromatography. A similar procedure was applied using GSH (50 μl, 10 mM) as challenge ligand.
For [^99mTc(N)(PNP3OH)(Cys-Gly-Lys-Gly-ApoMb)]^+ (“Cys-Gly-Lys-Gly” disclosed as SEQ ID NO: 1) additional experiments were conducted using EDTA (50 μl, 10 mM) as exchanging ligand.

avidin = avidin (Gallus gallus, UniProt P02701); assay: Avidin binding; conditions: 1 and 24 h at 37° C.
Experimental: Avidin Binding. The preliminary evaluation of the binding characteristics of the two separate isomers of complex 11 to avidin was assessed according to the previously reported methods and compared with those of the corresponding already published (Bolzati, C.; Caporale, A.; Agostini, S.; Carta, D.; Cavazza-Ceccato, M.; Refosco, F.; Tisato, F.; Schievano, E.; Bandoli, G. Avidin-biotin system: a small library of cysteine biotinylated derivatives designed for the [^99mTc(N)(PNp)]^2+ metal fragment. Nucl. Med. Biol (2006), 34, 511-522).
The percentage of radiolabeled biotin bound, evaluated after 1 and 24 h of incubation along the saturation curves, is reported in FIG. 9.

[2] = Isomeric conversion over 24 h at 37° C.; assay type: physicochemical
Experimental: Before the experiments for both complex 11 and complex 9, the two isomers were isolated by HPLC and their isomeric conversion was assessed over 24 h at 37° C.
In addition, a faster b vs a change was noticed. Therefore, for the radiolabeled peptide the mixture of the two isomeric forms in ratio 70/30 was directly utilized for receptor affinity studies.

Chain of avidin (P02701 25-152, species assumed): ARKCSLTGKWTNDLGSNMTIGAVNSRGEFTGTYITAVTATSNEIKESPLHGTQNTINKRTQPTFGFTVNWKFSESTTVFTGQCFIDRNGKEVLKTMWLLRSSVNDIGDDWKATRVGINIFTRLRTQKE

## [^99mTc(N)(PNP3OH)(Cys-Gly-Lys-Gly-ApoMb)]^+
[1]
  Stability in challenge with excess of Cys, GSH and EDTA: do not affect the stability

## [^99mTc(N)(PNP3OH)(Biot-Abu-Cys)] [Complex 11]
avidin
  Recognition by molecular target (avidin binding, FIG. 9): recognized by the corresponding molecular target
[2]
  Isomeric conversion a vs b: No variation of a vs b and vice versa
